In patent publication US4505893A, “Purified plasminogen activator, process for its production and thrombolytic composition containing it” (Asahi Kasei Kogyo Kabushiki Kaisha, priority 1982, dated 1985):
Square brackets hold non-standard residues; d marks the D form. Peptide text beside a SMILES is read from it. * marks the point of attachment. Sta = CC(C)C[C@H](N)[C@@H](O)CC(=O)O; Isovaleryl = CC(C)CC(=O)*

How the values were obtained:
urokinase = urokinase (Homo sapiens, UniProt P00749); experiment: biochemical
[1] = molecular target: T1, substance of this invention (plasminogen activator) (Homo sapiens, UniProt P00750); experiment: biochemical
T1 construct: endogenous in cells
T1 sequence (P00750 36-562): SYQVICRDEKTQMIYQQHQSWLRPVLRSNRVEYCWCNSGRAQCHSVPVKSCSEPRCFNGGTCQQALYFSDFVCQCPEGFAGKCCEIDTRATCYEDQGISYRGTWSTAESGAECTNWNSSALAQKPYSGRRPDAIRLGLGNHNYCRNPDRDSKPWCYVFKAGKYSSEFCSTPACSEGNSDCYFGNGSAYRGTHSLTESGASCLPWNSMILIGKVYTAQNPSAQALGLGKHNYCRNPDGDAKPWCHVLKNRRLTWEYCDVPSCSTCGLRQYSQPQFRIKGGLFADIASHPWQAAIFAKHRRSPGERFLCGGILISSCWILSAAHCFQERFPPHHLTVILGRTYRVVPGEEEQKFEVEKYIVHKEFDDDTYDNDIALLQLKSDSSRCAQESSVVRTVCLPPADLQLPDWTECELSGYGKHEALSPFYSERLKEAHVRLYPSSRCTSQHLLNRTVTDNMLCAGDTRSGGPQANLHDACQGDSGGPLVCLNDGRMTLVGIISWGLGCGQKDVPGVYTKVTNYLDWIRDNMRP

fibrin = experiment: Affinity to fibrin (incorporation into formed fibrin); assay type: binding; conditions: 500 U/ml (urokinase 500 IU/ml); plasminogen-free fibrinogen + thrombin, 1 hour at room temperature; extracted with 2M ammonium thiocyanate
[2] = Hydrolysis activity on various organic substrates; assay type: biochemical; conditions: 37° C. 15 minutes, 1 μM aminomethylcoumarin = 100%, substance 100 U/ml, urokinase 120 IU/ml
plasminogen = experiment: Enhancement of activity with fibrin (plasminogen activation, Boc-Val-Leu-Lys-MCA); assay type: biochemical; conditions: 5 U/ml (urokinase 5 IU/ml), 25° C. 1 hour, 10 μM aminomethylcoumarin = 100%

## CC(=O)N[C@@H](CC(C)C)C(=O)N[C@@H](CC(C)C)C(=O)N[C@H](C=O)CCCNC(=N)N [Leupeptin]
urokinase
  IC50: 80.7 µM
[1]
  IC50: 47.5 µM

## CC(C)CC(=O)N[C@H](C(=O)N[C@H](C(=O)N[C@@H](CC(C)C)[C@@H](O)CC(=O)N[C@@H](C)C(=O)N[C@@H](CC(C)C)[C@@H](O)CC(=O)O)C(C)C)C(C)C [Pepstatin] (Isovaleryl-VV[Sta]A[Sta]-OH)
urokinase
  IC50: > 100 µM
[1]
  IC50: > 100 µM

## CCOC(=O)c1ccc(OC(=O)CCCCCNC(=N)N)cc1 [FOY]
urokinase
  IC50: 0.146 µM
[1]
  IC50: 12.8 µM

## urokinase
fibrin
  proportion of the substance incorporated in the fibrin: not incorporated in the fibrin at all
[2]; substrate Boc-Glu-Lys-Lys-MCA 0.1 mM
  Hydrolysis Activity (%): 2.82%
[2]; substrate Boc-Ileu-Glu-Gly-Arg-MCA 0.1 mM
  Hydrolysis Activity (%): 3.30%
[2]; substrate Boc-Phe-Ser-Arg-MCA 0.1 mM
  Hydrolysis Activity (%): 48.9%
[2]; substrate Glt-Gly-Arg-MCA 0.1 mM
  Hydrolysis Activity (%): 314%
[2]; substrate Pro-Phe-Arg-MCA 0.1 mM
  Hydrolysis Activity (%): 3.89%
[2]; substrate Z--Phe-Arg-MCA 0.1 mM
  Hydrolysis Activity (%): 2.15%
plasminogen; fibrinogen added
  Hydrolysis Activity (%): 5.9%
plasminogen; fibrinogen not added
  Hydrolysis Activity (%): 28%

## CC(C)C[C@H](NC(=O)[C@@H](NC(=O)N[C@@H](Cc1ccccc1)C(=O)O)[C@@H]1CCN=C(N)N1)C(=O)N[C@H](C=O)Cc1ccccc1 [Chymostatin]
urokinase
  IC50: > 160 µM
[1]
  IC50: > 160 µM
